From ChEMBL document CHEMBL1123334, “4-Amino-6-chloro-2-piperazinopyrimidines with selective affinity for alpha 2-adrenoceptors” (J Med Chem, 1986)

Columns and labels:
Dopamine receptor = test: In vitro binding affinity to Dopamine receptors of rat striatal membranes by [3H]spiroperidol displacement.
[1] = target: T1, Adrenergic receptor alpha-1 (Rattus norvegicus, UniProt P15823+P23944+P43140); test: In vitro binding affinity was measured as the inhibition of [3H]WB-4101 binding to alpha-1 adrenergic receptor of rat cortical membranes; type: cell membranes, Membrane
T1 sequence (P15823 whole entry): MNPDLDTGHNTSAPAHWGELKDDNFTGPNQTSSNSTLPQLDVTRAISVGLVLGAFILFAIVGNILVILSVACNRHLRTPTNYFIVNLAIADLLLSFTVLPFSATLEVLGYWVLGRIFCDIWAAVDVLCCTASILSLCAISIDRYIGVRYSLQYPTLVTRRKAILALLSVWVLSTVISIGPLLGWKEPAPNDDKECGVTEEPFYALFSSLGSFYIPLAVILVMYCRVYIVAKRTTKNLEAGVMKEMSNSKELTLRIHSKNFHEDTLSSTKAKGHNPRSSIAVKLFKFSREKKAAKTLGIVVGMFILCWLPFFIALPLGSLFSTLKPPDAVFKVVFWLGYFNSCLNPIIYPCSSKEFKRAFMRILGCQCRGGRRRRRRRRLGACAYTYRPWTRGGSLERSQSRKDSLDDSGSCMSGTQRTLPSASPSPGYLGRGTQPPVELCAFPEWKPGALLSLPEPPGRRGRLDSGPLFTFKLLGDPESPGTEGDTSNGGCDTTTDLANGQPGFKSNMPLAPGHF
T1 sequence (P23944 whole entry): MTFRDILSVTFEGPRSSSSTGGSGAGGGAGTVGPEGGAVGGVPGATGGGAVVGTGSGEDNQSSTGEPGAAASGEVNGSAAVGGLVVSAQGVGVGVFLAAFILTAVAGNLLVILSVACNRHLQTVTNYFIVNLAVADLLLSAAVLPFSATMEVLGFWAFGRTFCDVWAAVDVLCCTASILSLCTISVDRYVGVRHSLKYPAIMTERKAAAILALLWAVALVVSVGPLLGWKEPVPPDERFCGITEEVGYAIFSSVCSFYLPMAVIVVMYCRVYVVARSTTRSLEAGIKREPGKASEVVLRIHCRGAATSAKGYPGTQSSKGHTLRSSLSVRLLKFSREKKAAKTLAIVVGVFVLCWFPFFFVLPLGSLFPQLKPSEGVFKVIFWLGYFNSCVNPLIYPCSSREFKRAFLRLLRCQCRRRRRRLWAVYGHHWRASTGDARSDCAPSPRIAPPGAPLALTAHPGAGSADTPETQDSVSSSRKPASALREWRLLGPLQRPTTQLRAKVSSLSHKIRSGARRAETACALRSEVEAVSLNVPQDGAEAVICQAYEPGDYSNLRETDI
T1 sequence (P43140 whole entry): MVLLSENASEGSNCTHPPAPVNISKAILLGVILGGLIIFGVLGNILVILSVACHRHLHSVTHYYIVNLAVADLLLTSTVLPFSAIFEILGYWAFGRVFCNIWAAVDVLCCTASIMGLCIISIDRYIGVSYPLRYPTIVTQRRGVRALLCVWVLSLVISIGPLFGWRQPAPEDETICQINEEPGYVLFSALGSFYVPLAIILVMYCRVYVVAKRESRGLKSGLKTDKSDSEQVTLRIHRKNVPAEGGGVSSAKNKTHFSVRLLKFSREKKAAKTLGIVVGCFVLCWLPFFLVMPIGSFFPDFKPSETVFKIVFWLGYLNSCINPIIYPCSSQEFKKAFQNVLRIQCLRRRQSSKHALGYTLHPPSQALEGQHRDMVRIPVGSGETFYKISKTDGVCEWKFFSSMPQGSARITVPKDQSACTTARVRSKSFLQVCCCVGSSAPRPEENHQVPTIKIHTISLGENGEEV

[2] = target: T2, Adrenergic receptor alpha-2 (Rattus norvegicus, UniProt P22086+P19328+P22909)
T2 sequence (P22086 whole entry): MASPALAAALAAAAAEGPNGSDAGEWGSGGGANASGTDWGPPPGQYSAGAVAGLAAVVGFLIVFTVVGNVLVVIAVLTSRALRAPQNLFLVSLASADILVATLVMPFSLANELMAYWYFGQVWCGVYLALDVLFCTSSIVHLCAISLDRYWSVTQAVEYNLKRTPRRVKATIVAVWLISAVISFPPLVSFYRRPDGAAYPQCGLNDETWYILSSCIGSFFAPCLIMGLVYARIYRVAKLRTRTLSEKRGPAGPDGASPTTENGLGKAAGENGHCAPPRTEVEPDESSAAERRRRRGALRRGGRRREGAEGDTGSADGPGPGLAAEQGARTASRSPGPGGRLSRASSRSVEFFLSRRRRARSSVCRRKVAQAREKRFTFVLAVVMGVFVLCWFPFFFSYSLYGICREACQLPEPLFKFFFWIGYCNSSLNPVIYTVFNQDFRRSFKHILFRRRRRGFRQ
T2 sequence (P19328 whole entry): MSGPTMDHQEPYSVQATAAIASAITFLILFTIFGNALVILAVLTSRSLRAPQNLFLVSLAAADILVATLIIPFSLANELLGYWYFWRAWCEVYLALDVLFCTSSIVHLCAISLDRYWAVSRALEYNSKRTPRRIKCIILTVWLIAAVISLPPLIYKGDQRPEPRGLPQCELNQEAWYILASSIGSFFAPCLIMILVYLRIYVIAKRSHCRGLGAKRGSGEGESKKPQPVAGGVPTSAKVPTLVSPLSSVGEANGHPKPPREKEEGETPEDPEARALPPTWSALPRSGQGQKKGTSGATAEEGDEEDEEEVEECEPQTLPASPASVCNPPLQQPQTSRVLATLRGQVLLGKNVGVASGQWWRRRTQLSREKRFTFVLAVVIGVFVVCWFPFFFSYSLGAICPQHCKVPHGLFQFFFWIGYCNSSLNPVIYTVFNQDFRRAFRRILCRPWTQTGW
T2 sequence (P22909 whole entry): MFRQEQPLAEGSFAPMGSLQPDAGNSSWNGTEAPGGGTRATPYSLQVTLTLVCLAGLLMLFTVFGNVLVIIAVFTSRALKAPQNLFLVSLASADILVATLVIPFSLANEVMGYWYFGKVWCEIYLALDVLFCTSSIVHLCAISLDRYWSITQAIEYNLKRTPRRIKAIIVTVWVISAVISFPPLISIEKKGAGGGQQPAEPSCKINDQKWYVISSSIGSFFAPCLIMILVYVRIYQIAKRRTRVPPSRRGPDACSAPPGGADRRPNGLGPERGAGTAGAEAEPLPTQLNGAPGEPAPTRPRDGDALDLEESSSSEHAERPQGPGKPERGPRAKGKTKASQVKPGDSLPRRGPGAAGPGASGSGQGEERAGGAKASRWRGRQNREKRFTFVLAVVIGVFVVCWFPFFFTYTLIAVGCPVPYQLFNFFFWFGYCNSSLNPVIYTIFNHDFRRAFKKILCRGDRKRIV

[3] = target: T2, Adrenergic receptor alpha-2; test: Inhibition of [3H]idazoxan binding to alpha-2 adrenergic receptor of rat cortical membranes; type: cell membranes, Membrane
[4] = target: T2, Adrenergic receptor alpha-2; test: In vitro binding affinity was measured as the inhibition of [3H]idazoxan to alpha-2 adrenergic receptors of rat cortical membranes; type: cell membranes, Membrane

Compound | Ki (Dopamine receptor) | Ki [1] | Ki [2] | Ki [3] | Ki [4]
CNc1nc(N2CCN(C)CC2)nc(Cl)c1Br | 200 nM | 180 nM | 150 nM |  | 
COc1c(Cl)nc(N2CCN(C)CC2)nc1NC(C)C |  | 310 nM | 50 nM |  | 
CSc1c(Cl)nc(N2CCN(C)CC2)nc1NC(C)C | 640 nM | 360 nM | 26 nM |  | 
CNc1nc(Cl)c(SC)c(N2CCN(C)CC2)n1 [MEZILAMINE] |  | 91 nM | 9 nM | 12 nM | 
CSc1c(Cl)nc(N2CCN(C)CC2)nc1NC1CCCC1 | 1200 nM | 76 nM | 22 nM |  | 
CSc1c(Cl)nc(N2CCN(C)CC2)nc1NCc1ccccc1 | 14 nM | 100 nM | 1500 nM |  | 
CC(C)Nc1nc(N2CCN(C)CC2)nc(Cl)c1Cl | 2400 nM | 42 nM | 5 nM |  | 14 nM
CNc1nc(N2CCN(C)CC2)nc(Cl)c1Cl | 1200 nM | 4 nM | 44 nM |  | 
COC(=O)[C@@H]1[C@H]2C[C@H]3c4[nH]c5ccccc5c4CCN3C[C@@H]2CC[C@@H]1O [YOHIMBINE] | 2000 nM |  |  |  | 
Cc1c(Cl)nc(N2CCN(C)CC2)nc1NC(C)C | 880 nM | 200 nM | 16 nM |  | 
CCNc1nc(N2CCN(C)CC2)nc(Cl)c1SC |  | 1800 nM | 90 nM |  | 
CC(COc1ccccc1)N(CCCl)Cc1ccccc1 (stereo not drawn) [PHENOXYBENZAMINE] | 120 nM | 1.8 nM |  |  | 
CN1CCN(c2nc(N)c(Br)c(Cl)n2)CC1 | 10000 nM | 820 nM | 1600 nM |  | 
CSc1c(Cl)nc(N2CCN(C)CC2)nc1NC1CCCCC1 |  | 240 nM | 290 nM |  | 
CN1CCN(c2nc(N)c(Cl)c(Cl)n2)CC1 |  | 67 nM | 50 nM |  | 
CSc1c(Cl)nc(N2CCN(C)CC2)nc1Nc1ccccc1 |  | 140 nM | 240 nM | 500 nM | 

Compound | Ki (Dopamine receptor) | Ki [1] | Ki [2] | Ki [3] | Ki [4]
CC(C)Nc1nc(N2CCNCC2)nc(Cl)c1Br | 880 nM | 200 nM | 16 nM | 28 nM | 
CSc1c(Cl)nc(N2CCN(C)CC2)nc1NCCc1ccccc1 | 1400 nM | 180 nM | 910 nM |  | 
CSc1c(Cl)nc(N2CCN(C)CC2)nc1NC(C)(C)C | 920 nM | 450 nM | 180 nM |  | 
CC(C)Nc1nc(N2CCN(C)CC2)nc(Cl)c1Br | 480 nM | 290 nM | 7 nM |  | 
COc1c(Cl)nc(N2CCN(C)CC2)nc1NC1CCCC1 | 670 nM | 1700 nM | 50 nM | 29 nM | 
CNc1nc(N2CCN(C)CC2)nc(Cl)c1OC |  | 1700 nM | 150 nM |  | 
CN1CCN(c2nc(Cl)c(Cl)c(NC3CCCC3)n2)CC1 |  | 240 nM | 120 nM |  | 97 nM
CNc1nc(N2CCN(C)CC2)nc(Cl)c1SC |  | 1800 nM | 360 nM |  | 
CSc1c(N)nc(N2CCN(C)CC2)nc1Cl | 1000 nM | 820 nM | 620 nM |  | 
CNc1cc(Cl)nc(N2CCN(C)CC2)n1 | 630 nM | 280 nM | 50 nM | 100 nM | 
Clc1cccc(Cl)c1NC1=NCCN1 [CLONIDINE] | > 4000 nM |  |  |  | 
CN1CCN(c2nc(Cl)c(Br)c(NC3CCCC3)n2)CC1 |  | 250 nM | 140 nM | 230 nM | 
Cc1c(Cl)nc(N2CCNCC2)nc1NC(C)C | 2900 nM | 860 nM | 6 nM | 13 nM | 
CSc1c(Cl)nc(N2CCNCC2)nc1NC(C)C | 3000 nM | 500 nM | 36 nM | 62 nM | 
CC(C)Nc1cc(Cl)nc(N2CCN(C)CC2)n1 |  | > 180 nM | 130 nM |  | 200 nM
